Source: ChEMBL document CHEMBL6103545, “Discovery of GS-2278, a Potent and Selective LPAR1 Antagonist for the Treatment of Idiopathic Pulmonary Fibrosis” (J Med Chem, 2025)

Assays:
[1] = Apparent permeability across apical to basolateral side in cMDR1 knockout MDCK-II cells incubated upto 240 mins by RF-QToF analysis; type: ADME, cell-based, Canis lupus familiaris; conditions: dog
[2] = Lipophilicity, logD of compound at pH 7.4; type: physicochemical; conditions: buffer
[3] = Plasma protein binding in human assessed as unbound fraction incubated for 24 hrs by equilibrium dialysis based Rapidfire-QToF mass spectrometric analysis; type: ADME, cell-free
[4] = molecular target: T1, Lysophosphatidic acid receptor 1 (Homo sapiens, UniProt Q92633); test: Antagonist activity at LPA1 receptor in serum starved human TWNT-4 cells assessed as nuclear translocation pre-incubated for 1 hr followed by LPA stimulation and measured after 30 min by MRTF-A assay; type: cell-based
T1 sequence (Q92633 whole entry): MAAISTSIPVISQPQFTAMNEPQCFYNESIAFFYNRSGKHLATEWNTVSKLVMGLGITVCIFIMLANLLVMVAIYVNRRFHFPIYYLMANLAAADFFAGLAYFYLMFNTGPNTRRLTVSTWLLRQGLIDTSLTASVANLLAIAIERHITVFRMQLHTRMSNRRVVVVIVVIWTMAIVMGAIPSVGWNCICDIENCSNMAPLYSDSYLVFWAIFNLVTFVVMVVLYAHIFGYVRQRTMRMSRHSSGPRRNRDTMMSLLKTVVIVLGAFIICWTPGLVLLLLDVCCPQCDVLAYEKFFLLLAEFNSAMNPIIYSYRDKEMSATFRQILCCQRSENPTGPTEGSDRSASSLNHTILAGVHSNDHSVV

[5] = AUC (0 to 24 hrs) in Beagle dog at 5 mg/kg, po measured after 24 hrs by LC/MS/MS analysis; type: ADME, organism-based, Canis lupus familiaris; conditions: in vivo
[6] = AUC (0 to 24 hrs) in cynomolgus monkey at 5 mg/kg, po measured after 24 hrs by LC/MS/MS analysis; type: ADME, organism-based, Macaca fascicularis; conditions: in vivo
[7] = Metabolic stability in Beagle dog liver microsomes assessed as intrinsic clearance at 1 uM by LC/MS/MS analysis; type: ADME, Canis lupus familiaris, Microsome; conditions: read-out: CLH (converted)
[8] = Half-life in cynomolgus monkey at 5 mg/kg, po measured after 24 hrs by LC/MS/MS analysis; type: ADME, organism-based, Macaca fascicularis; conditions: in vivo
[9] = Metabolic stability in male Sprague-Dawley rat liver microsomes assessed as intrinsic clearance at 1 uM by LC/MS/MS analysis; type: ADME, Microsome; conditions: read-out: CLH (converted)
[10] = Volume of distribution in male Sprague-Dawley rat at 1 mg/kg, iv s measured after 24 hrs by LC/MS/MS analysis; type: ADME, organism-based; conditions: in vivo
[11] = Half-life in male Sprague-Dawley rat at 1 mg/kg, iv measured after 24 hrs by LC/MS/MS analysis; type: ADME, organism-based; conditions: in vivo
[12] = Volume of distribution in cynomolgus monkey at 1 mg/kg, iv measured after 24 hrs by LC/MS/MS analysis; type: ADME, organism-based, Macaca fascicularis; conditions: in vivo
[13] = Oral bioavailability in male Sprague-Dawley rat at 5 mg/kg measured after 24 hrs by LC/MS/MS analysis; type: ADME, organism-based; conditions: in vivo
[14] = Oral bioavailability in cynomolgus monkey at 5 mg/kg measured after 24 hrs by LC/MS/MS analysis; type: ADME, organism-based, Macaca fascicularis; conditions: in vivo
[15] = Half-life in Beagle dog at 5 mg/kg, po measured after 24 hrs by LC/MS/MS analysis; type: ADME, organism-based, Canis lupus familiaris; conditions: in vivo
[16] = Oral bioavailability in Beagle dog at 5 mg/kg measured after 24 hrs by LC/MS/MS analysis; type: ADME, organism-based, Canis lupus familiaris; conditions: in vivo
[17] = Metabolic stability in cynomolgus monkey liver microsomes assessed as intrinsic clearance at 1 uM by LC/MS/MS analysis; type: ADME, Macaca fascicularis, Microsome; conditions: read-out: CLH (converted)
[18] = AUC (0 to 24 hrs) in male Sprague-Dawley rat at 5 mg/kg, po measured after 24 hrs by LC/MS/MS analysis; type: ADME, organism-based; conditions: in vivo
[19] = Volume of distribution in Beagle dog at 1 mg/kg, iv measured after 24 hrs by LC/MS/MS analysis; type: ADME, organism-based, Canis lupus familiaris; conditions: in vivo
[20] = Dissociation constant, pKa of compound at 100 uM by capillary electrophoresis; type: physicochemical
[21] = Drug excretion in bile-duct cannulated rat urine at 1 mg/kg, iv; type: ADME, organism-based; conditions: read-out: Drug excretion
[22] = molecular target: T1, Lysophosphatidic acid receptor 1; test: […] at LPA1 receptor in human TWNT-4 cells pre-incubated for 1 hr followed by 30 mins incubation in presence of 4% human serum albumin by MRTF-A assay; type: functional, cell-based
[23] = molecular target: T1, Lysophosphatidic acid receptor 1; test: […] at LPA1 receptor in human TWNT-4 cells assessed as nuclear translocation pre-incubated for 1 hr followed by 30 min incubation by MRTF-A assay; type: functional, cell-based

Row | Compound | Papp A→B at 4 h [1] | logD [2] | fraction unbound at 24 h [3] | EC50 [4] | other results
1 | Cc1nc(-c2nnn(C)c2NC(=O)O[C@H](C)c2cc(F)cnc2Cl)ccc1NS(C)(=O)=O | 13 ×10⁻⁶ cm/s | 1.8 | 0.13 | 83 nM | 
2 | CC(=O)N(C)c1ccc(-c2nnn(C)c2NC(=O)O[C@H](C)c2ccccc2Cl)cc1 |  | 2.2 |  | 7530 nM | 
3 | C[C@@H](OC(=O)Nc1c(-c2ccc(NS(C)(=O)=O)cc2)nnn1C)c1ccccc1Cl |  | 2.4 |  | 12 nM | 
4 | Cc1nc(-c2nnn(C)c2NC(=O)O[C@@H](c2ccccc2)C(F)(F)F)ccc1NS(C)(=O)=O | 18 ×10⁻⁶ cm/s | 2.5 | 0.2 | 45 nM | 
5 | C[C@@H](OC(=O)Nc1c(-c2ccc(NS(C)(=O)=O)cn2)nnn1C)c1cc(F)cnc1F | 3.2 ×10⁻⁶ cm/s | 1.5 | 0.31 | 35 nM | AUC(0-t) at 24 h [5]: 25 µM·h; AUC(0-t) at 24 h [6]: 13 µM·h; CLint scaled at 1 µM [7]: 8.67 mL/min/kg; half-life [8]: 3.8 h; CLint scaled at 1 µM [9]: 18.5 mL/min/kg; Vd [10]: 1 L/kg; half-life [11]: 3 h; Vd [12]: 0.4 L/kg; bioavailability [13]: 55%; bioavailability [14]: 45%; half-life [15]: 3.6 h; bioavailability [16]: 100%; CLint scaled at 1 µM [17]: 7.17 mL/min/kg; AUC(0-t) at 24 h [18]: 5.4 µM·h; Vd [19]: 1 L/kg
6 | Cc1nc(-c2nnn(C)c2NC(=O)O[C@H](C)c2cccnc2F)ccc1NS(C)(=O)=O | 5.6 ×10⁻⁶ cm/s | 1.4 | 0.38 | 1370 nM | 
7 | C[C@@H](OC(=O)Nc1c(-c2ccc(NS(C)(=O)=O)cn2)nnn1C)c1cc(F)cnc1Cl | 5.5 ×10⁻⁶ cm/s | 1.7 | 0.18 |  | 
8 | C[C@@H](OC(=O)Nc1c(-c2ccc(NC(=O)c3ccnc(C(F)(F)F)c3)cn2)nnn1C)c1cc(F)cnc1F | 4.6 ×10⁻⁶ cm/s | 2.7 | 0.14 |  | 
9 | C[C@@H](OC(=O)Nc1c(-c2ccc(NC(=O)C(F)(F)F)cc2)nnn1C)c1ccccc1Cl |  | 3.3 |  | 20 nM | 
10 | Cc1nc(-c2nnn(C)c2NC(=O)O[C@H](C)c2ccccc2Cl)ccc1NS(C)(=O)=O | 27 ×10⁻⁶ cm/s | 2.5 | 0.13 | 11 nM | 
11 | C[C@@H](OC(=O)Nc1c(-c2ccc(N)cc2)nnn1C)c1ccccc1Cl |  | 2.3 |  | 417 nM | 
12 | Cc1nc(-c2nnn(C)c2NC(=O)O[C@H](C)c2cccnc2Cl)ccc1NS(C)(=O)=O | 5.9 ×10⁻⁶ cm/s | 1.5 | 0.17 | 109 nM | pKa at 100 µM [20]: 7.1; dose excreted [21]: 50%
13 | C[C@@H](OC(=O)Nc1c(-c2ccc(NS(=O)(=O)CC#N)cc2)nnn1C)c1ccccc1Cl |  | 2.2 |  | 32 nM | 
14 | C[C@@H](OC(=O)Nc1c(-c2ccc(N(C)S(C)(=O)=O)cc2)nnn1C)c1ccccc1Cl |  | 2.7 |  | 890 nM | 
15 | C[C@@H](OC(=O)Nc1c(-c2ccc(NC(=O)C34CC(F)(C3)C4)cn2)nnn1C)c1cc(F)cnc1F | 11 ×10⁻⁶ cm/s | 2.3 | 0.33 | 77 nM | 
16 | Cn1nnc(-c2ccc(NS(C)(=O)=O)cn2)c1NC(=O)O[C@H](CF)c1ccccc1 | 5 ×10⁻⁶ cm/s | 1.6 | 0.27 | 81 nM | 
17 | C[C@@H](OC(=O)Nc1c(-c2ccc(NC(=O)C3(C#N)CC3)cn2)nnn1C)c1cc(F)cnc1F | 21 ×10⁻⁶ cm/s | 1.9 | 0.46 | 37 nM | 
18 | C[C@@H](OC(=O)Nc1c(-c2ccccc2)nnn1C)c1ccccc1Cl |  | 3.2 |  |  | 
19 | C[C@@H](OC(=O)Nc1c(-c2ccc(NS(C)(=O)=O)cn2)nnn1C)c1cccnc1Cl | 2.8 ×10⁻⁶ cm/s | 1.3 | 0.26 | 108 nM | 
20 | Cc1nc(-c2nnn(C)c2NC(=O)O[C@H](CF)c2ccccc2)ccc1NS(C)(=O)=O | 17 ×10⁻⁶ cm/s | 1.9 | 0.29 | 31 nM | 
21 | C[C@@H](OC(=O)Nc1c(-c2ccc(O)cc2)nnn1C)c1ccccc1Cl |  | 2.5 |  | 237 nM | 
22 | C[C@@H](OC(=O)Nc1c(-c2ccc(NC(=O)C3CC(F)(F)C3)cn2)nnn1C)c1cc(F)cnc1F | 15 ×10⁻⁶ cm/s | 2.4 | 0.21 | 21 nM | 

Row | Compound | Papp A→B at 4 h [1] | logD [2] | fraction unbound at 24 h [3] | EC50 [4] | other results
23 | CNS(=O)(=O)c1ccc(-c2nnn(C)c2NC(=O)O[C@H](C)c2ccccc2Cl)cc1 |  | 2.6 |  | 893 nM | 
24 | C[C@@H](OC(=O)Nc1c(-c2ccc(NS(=O)(=O)C(C)(C)C)cc2)nnn1C)c1ccccc1Cl |  | 3 |  | > 10000 nM | 
25 | Cc1nc(-c2nnn(C)c2NC(=O)O[C@H](C)c2cc(F)ccc2F)ccc1NS(C)(=O)=O | 20 ×10⁻⁶ cm/s | 2.4 | 0.19 | 953 nM | 
26 | CC(=O)Nc1ccc(-c2nnn(C)c2NC(=O)O[C@H](C)c2cc(F)cnc2F)nc1 | 7.7 ×10⁻⁶ cm/s | 1.3 | 0.36 | 1350 nM | 
27 | C[C@@H](OC(=O)Nc1c(-c2ccc(NC(=O)c3ccc(C(F)(F)F)nc3)cn2)nnn1C)c1cc(F)cnc1F | 14 ×10⁻⁶ cm/s | 2.7 | 0.15 | 25 nM | 
28 | C[C@@H](OC(=O)Nc1c(-c2ccc(S(=O)(=O)NC3CC3)cc2)nnn1C)c1ccccc1Cl |  | 2.9 |  |  | 
29 | C[C@@H](OC(=O)Nc1c(-c2ccc(N)cn2)nnn1C)c1cc(F)cnc1F.Cl | 15 ×10⁻⁶ cm/s | 1.3 | 0.71 | 7920 nM | 
30 | C[C@@H](OC(=O)Nc1c(-c2ccc(NS(C)(=O)=O)cn2)nnn1C)c1ccccc1 | 13 ×10⁻⁶ cm/s | 1.9 | 0.27 |  | 
31 | Cc1nc(-c2nnn(C)c2NC(=O)O[C@H](C)c2cccc(F)c2)ccc1NS(C)(=O)=O | 23 ×10⁻⁶ cm/s | 2.2 | 0.22 |  | 
32 | Cc1nc(-c2nnn(C)c2NC(=O)O[C@H](C)c2cc(F)cnc2F)ccc1NS(C)(=O)=O | 8.8 ×10⁻⁶ cm/s | 1.7 | 0.15 | 124 nM | 
33 | C[C@@H](OC(=O)Nc1c(-c2ccc(S(N)(=O)=O)cc2)nnn1C)c1ccccc1Cl |  | 2.2 |  |  | 
34 | C[C@@H](OC(=O)Nc1c(-c2ccc(NS(C)(=O)=O)cn2)nnn1C)c1cc(F)ccc1F | 16 ×10⁻⁶ cm/s | 2.1 | 0.18 | 122 nM | 
35 | C[C@@H](OC(=O)Nc1c(-c2ccc(NC(=O)C34CC(C#N)(C3)C4)cn2)nnn1C)c1cc(F)cnc1F | 8.3 ×10⁻⁶ cm/s | 2 | 0.31 | 51 nM | 
36 | C[C@@H](OC(=O)Nc1c(-c2ccc(NS(C)(=O)=O)cn2)nnn1C)c1ccccc1Cl | 19 ×10⁻⁶ cm/s | 2.2 |  | 30 nM | 
37 | C[C@@H](OC(=O)Nc1c(-c2ccc(NS(C)(=O)=O)cn2)nnn1C)c1cccnc1F | 4.4 ×10⁻⁶ cm/s | 1.1 | 0.3 | 186 nM | 
38 | C[C@@H](OC(=O)Nc1c(-c2ccc(NC(=O)[C@@H]3CC3(F)F)cn2)nnn1C)c1cc(F)cnc1F | 12 ×10⁻⁶ cm/s | 2.2 | 0.35 | 576 nM | 
39 | Cc1ccc(C(=O)Nc2ccc(-c3nnn(C)c3NC(=O)O[C@H](C)c3cc(F)cnc3F)nc2)cn1 | 7.2 ×10⁻⁶ cm/s | 1.7 | 0.32 | 109 nM | 
40 | Cc1nc(-c2nnn(C)c2NC(=O)O[C@H](C)c2ccccc2)ccc1NS(C)(=O)=O | 27 ×10⁻⁶ cm/s | 2.2 | 0.2 |  | 
41 | C[C@@H](OC(=O)Nc1c(-c2ccc(NC(=O)C3(C(F)F)CC3)cn2)nnn1C)c1cc(F)cnc1F | 40 ×10⁻⁶ cm/s | 2.4 | 0.56 | 5250 nM | 
42 | C[C@@H](OC(=O)Nc1c(-c2ccc(NS(C)(=O)=O)cn2)nnn1C)c1cccc(F)c1 | 15 ×10⁻⁶ cm/s | 1.9 | 0.25 | 522 nM | 
43 | CCCCCCCC/C=C\CCCCCCCC(=O)OC[C@@H](O)COP(=O)(O)O [LYSOPHOSPHATIDIC ACID] |  |  |  |  | EC50 [22]: 306 nM; EC50 [23]: 47.3 nM
